In patent US12011447B2, “Pharmaceutical composition for treating thyroid cancer comprising tyrosine kinase activity inhibitor as active ingredient” (Kyungpook National University Industry-Academic Cooperation …, priority 2017, dated 2024):

Key:
Format in all cases: cell-based, human
NIS = experiment: Immunofluorescence microscopy of NIS; conditions: anaplastic thyroid cancer cells, 24 hours
Procedure: 8505C cells were seeded in a plate at a density of 2×10^5 cells and treated with the TKI inhibitor TKI-0266. After 24 hours, the cells were fixed with 4% paraformaldehyde for 30 minutes at room temperature and washed three times with PBS for 10 minutes each wash. Next, the cells were treated with PBS containing 0.7% Triton for 10 minutes at room temperature and quenched with PBS containing 50 mM NH4Cl for 10 minutes at room temperature. The cells were washed three times with PBS for 5 minutes each wash, and then blocked with 5% BSA-containing PBS and incubated with anti-NIS primary antibody (diluted at 1:50; Abcam, UK) overnight at 4° C. The next day, the cells were washed three times with PBS for 10 minutes each wash and incubated with Alexa-Fluor 488-conjugated secondary antibody (diluted at 1:300; Thermo Fisher Scientific) 1 hour. After 1 hour, the cells were washed three times with PBS for 10 minutes for each wash, and mounted on a coverslip using a Vecta mounting medium (Vector Laboratories, USA) containing 4′,6-diamidino-2-phenylindole (DAPI). NIS staining was observed by confocal laser microscopy (Zeiss, LSM 5 exciter, Germany).

p-AKT = experiment: Western blot of phosphorylated AKT; conditions: 8505C-PNIS-PCMV cells
Procedure: (§1) 8505C-PNIS-PCMV cells were treated with TKI-0266 and incubated for 24 hours, and then the cell pellet was washed twice with cold phosphate-buffered saline (hereinafter referred to as PBS). An RIPA buffer (Thermo Fisher Scientific, USA) containing a protease/phosphatase cocktail inhibitor kit (Thermo Fisher Scientific) was added to the cell pellet to lyse the cells. The lysed cells were gently vortexed three times at a time interval, and centrifuged at 13000xg at 4° C. to isolate a soluble protein. The isolated protein was quantified using a BCA protein assay kit (Thermo Fisher Scientific).
(§2) Equal amounts of proteins were separated by 10% SDS-PAGE (sodium dodecyl sulfate-polyacrylamide gel electrophoresis), and then the proteins were transferred to PVDF membranes (Millipore, USA). The PVDF membrane was blocked with 3% BSA (bovine serum albumin) in TBS containing Tween-20 (TBS-T) for 1 hour, and incubated with primary antibodies in 0.5% BSA overnight at 4° C. The next day, the PVDF membrane was incubated with HRP-conjugated secondary antibodies at room temperature for 1 hour, and washed three times with TBS-T. The protein bands were visualized using ECL detection reagent (GE Healthcare Life Sciences, Italy) and the Fusion FX chemiluminescence analyzer system (Vilber lourmat, France). […]

[1] = test system: TPO, TSHR, Tg, TTF-1 and Pax-8; experiment: Western blot of thyroid-specific proteins; conditions: 8505C-PNIS-PCMV cells
Procedure: as §1, §2

[2] = R-luc BLI signal indicating cell viability in dual-reporter cells; conditions: human; 8505C-PNIS-PCMV cells, 24 hours, screening; read-out: BLI signal activity of R-luc (cell viability) compared to vehicle group
Description: (§3) A pNIS-FL2-TurboFP635-pCMV-Rluc recombinant vector expressing reporter genes driven by dual promoters was constructed by Cosmo Genetech, Ltd. (Republic of Korea) using a pNIS-FL2-TurboFP635 vector and a pcDNA3.1/Hygro(+) vector. Specifically, in order to screen a substance that increases the activity of NIS promoter, Firefly-luciferase2(F-luc2) and TurboFP635 were included downstream (clockwise) of the NIS promoter. In order count cells, CMV promoter and Renilla-luciferase (R-luc) were included upstream (counterclockwise) of the NIS promoter. The pNIS-FL2-TurboFP635 vector was provided from Dr. Abhijit De (ACTREC, India), and the pcDNA3.1/Hygro(+) vector was purchased from invitrogen (USA).
(§4) The 8505C cell line was transfected with the pNIS-FL2-TurboFP635-pCMV-Rluc recombinant vector using the Fu-GENE HD solution according to the protocols of the manufacturer (Promega). […]
(§5) To examine transcriptional regulation of the NIS (sodium iodide symporter) promoter, the 8505C-PNIS-PCMV cells were treated with a tyrosine kinase inhibitor (hereinafter referred to as TKI) library for 24 hours. Next, D-luciferin (150 μg/ml) was added to the cells, and the activity of NIS promoter was measured by IVIS Lumina III (Perkin-Elmer, Wellesley, Mass., USA). To normalize the NIS promoter activity to cell number, 10 μg/ml of h-coelenterazine was added to the cells, and the activity of R-luc was measured. […]

8505C-PNIS-PCMV cells = experiment: as above; conditions: FIG. 7B
Description: as §3, §4, §5

[3] = test system: NIS (sodium iodide symporter); experiment: Western blot of endogenous NIS protein (total, membrane, cytosolic)
Procedure: as §1
Membrane protein and cytosolic protein were isolated using Mem-PET™ plus kit (Thermo Fisher scientific) according to the manufacturer's protocols. Briefly, the collected cell pellet was washed with a cell wash solution and centrifuged at 300xg for 5 minutes, and this washing and centrifugation process was repeated two times. After centrifugation, the supernatant was discarded, and a permeabilization buffer was added to the cell pellet, followed by vortexing. Thereafter, the cell pellet was left to stand at 4° C. for 10 minutes with continuous stirring. After centrifugation, the supernatant containing cytosolic protein was collected, and a solubilization buffer was added to the remaining cell pellet which was then left to stand at 4° C. for 10 minutes with continuous stirring. After centrifugation again at 300xg for 5 minutes, the membrane protein was transferred into a fresh tube.
as §2

For `Cc1cc2c(N(C)C3CCCCC3)ncnc2s1` [TKI-0266], which “expression of endogenous NIS (immunofluorescence)” value (NIS) is on record?
Its value is “robust”.

And the “level of phosphorylated-AKT (p-AKT) protein vs vehicle” value (p-AKT)?
Its value is “little difference”.

And the “expression of TPO, TSHR, Tg, TTF-1 and Pax8 proteins” value [1]?
Its value is “increased”.

And the “expression of Tg, TPO, Pax8, TSHR, NIS and TTF-1 as treatment concentration increased” value ([1]; FIG. 12)?
Its value is “increased”.

And the viability at 24 h [2]?
Its viability at 24 h is ~75%.

And the “BLI signal activity of R-luc, vehicle group vs treated group” value (8505C-PNIS-PCMV cells)?
Its value is “did not significantly differ”.

And the “expression of endogenous NIS protein” value ([3]; 8505C-PNIS-PCMV cells, 24 hours, Western blot)?
The value was “significantly increased”.

And the “treatment concentration with the highest NIS protein expression” value ([3]; 8505C-PNIS-PCMV cells, Western blot)?
The value was 12.5 µM.

What about the “expression of cytosolic NIS protein” value ([3]; cytosolic protein fraction) of the same molecule?
Its value is “uptick”.

And the “expression of membrane NIS protein” value ([3]; membrane protein fraction)?
The value was “increased mainly in the cell membrane”.
